Measured values reported in patent US3947411A, “Novel 1-aryl-2-arylalkyl-3-or-4-[4'-(substituted-alkyl)piperazino-1']butanols- 2-or-butenes-1, and methods of manufacture thereof” (Warner-Lambert Company, priority 1972, dated 1976).
In brackets after ≈: the same amount, converted by molar mass.

Legend:
Solubility in water = type: physicochemical; conditions: hydrochlorides or oxalates, read-out: solubilities (in water)
Protocol: The following list contains examples of those compounds which are made according to the methods disclosed. (The individual compounds are identified by elementary analyses and infrared spectra, by ultra-violet or nuclear resonance spectra, if necessary.) Individual melting points and solubilities (in water) are also given as is the method by which each compound is prepared.
The melting points and solubilities are given for the Hydrochlorides I - XVI; XVIII - XXVII; XXIX - XXXV; XXXVII - XLII; XLIV - LXII; LXIV - LXVII, and the Oxalates XVII; […]; XXXVI; LXIII.

A. niger [1] = test: Minimum inhibitory concentration for fungi, tube dilution, A. niger (Table IV); conditions: Aspergillus niger, 48 h, read-out: Minimum Inhibitory Concentration, A. niger
Protocol: (§1) A tube dilution series of the respective compound in Sabouraud nutrient broth, whose individual tubes contained concentrations of 1024 μg, 512 μg, 256 μg, 128 μg, 64 μg, 32 μg, 16 μg, 8 μg, 4 μg, 2 μg, 1.1 μg and 0.5 μg/ml, was prepared and inoculated with a photometrically standardized suspension of the test organisms or the spores thereof.

Candida albicans = test: Agar well inhibition zone test against fungi, Candida albicans (Table II); conditions: quantity per well giving inhibition zone (500, 50, 5 μg tested); Sabouraud agar, 28°, 48 hours
Protocol: (§2) The efficacy of the compounds against fungi was tested as follows:
(§3) The test organisms, in this case the blastomycete Candida albicans and the mold Aspergillus niger, were inoculated onto Sabouraud agar plates by pouring a photometrically adjusted standard suspension of organisms on the plate. After inoculation, wells with a diameter of 5.0 mm were punched in the agar, and filled with 50 ul of the compound solution mentioned before. The quantity of compound applied thus amounted to 500 μg, 50 μg and 5 μg. After incubation at 28° for 48 hours, the quantity of compound was determined at which an inhibition of the organism's growth, in form of an inhibition zone around the corresponding well, was present.

Escherichia coli = test: Agar well inhibition zone test against bacteria, Escherichia coli (Table III); conditions: quantity per well giving inhibition zone (500, 50, 5 μg tested); nutrient agar, 37°, 24 hours
Protocol: The efficacy of the compounds against bacteria was tested as follows:
The test organisms, in this case Staphylococcus aureus and Escherichia coli, were inoculated on nutrient agar as described in Example 12, wells were punched, and the solutions of the compounds were transferred to fill the wells. The quantity of compound in the wells amounted again to 500 μg, 50 μg and 5 μg.
After incubation a 37° for 24 hours the quantity of compound was determined at which an inhibition of the organism's growth, in the form of an inhibition zone around the corresponding well, occurred.

Aspergillus niger = test: Agar well inhibition zone test against fungi, Aspergillus niger (Table II); conditions: quantity per well giving inhibition zone (500, 50, 5 μg tested); Sabouraud agar, 28°, 48 hours
Protocol: as §2, §3

C. albicans [2] = test: Minimum inhibitory concentration for fungi, tube dilution, C. albicans (Table IV); conditions: Candida albicans, 48 h, read-out: Minimum Inhibitory Concentration, C. albicans
Protocol: as §1

Staphylococcus aureus = test: Agar well inhibition zone test against bacteria, Staphylococcus aureus (Table III); conditions: quantity per well giving inhibition zone (500, 50, 5 μg tested); nutrient agar, 37°, 24 hours
C. albicans [3] = test: Minimum inhibitory concentration for fungi in presence of serum, C. albicans (Table VI); type: cell-based; conditions: Candida albicans; Sabouraud nutrient broth + 10% bovine serum, 28°C, 48 hours
A. niger [4] = test: Minimum inhibitory concentration for fungi in presence of serum, A. niger (Table VI); type: cell-based; conditions: Aspergillus niger; Sabouraud nutrient broth + 10% bovine serum, 28°C, 48 hours
Staph. aureus = test: Minimum inhibitory concentration for bacteria, tube dilution, Staph. aureus (Table V); conditions: Staphylococcus aureus, 48 h, read-out: Minimum Inhibitory Concentration, Staph. aureus
Protocol: A tube dilution series of the respective compound in nutrient broth whose individual tubes contained concentrations of 1024 μg, 512 μg, 256 μg, 128 μg, 64 μg, 32 μg, 1 μg, 8 μg, 4 μg, 2 μg, 1.1 μg and 0.5 μg/ml was prepared and inoculated with a photometrically standardized suspension of the test organisms.

Structure (SMILES)	solubility (Solubility in water)	MIC (A. niger [1])	Inhibition Area at μg, Cand. albicans (Candida albicans)	Inhibition Area at μg, E. coli (Escherichia coli)	Inhibition Area at μg, Asp. niger (Aspergillus niger)	MIC (C. albicans [2])	Inhibition Area at μg, Staph. aureus (Staphylococcus aureus)	MIC (C. albicans [3])	MIC (A. niger [4])	MIC (Staph. aureus)
CC(N1CCN(CCN(C)C)CC1)C(O)(Cc1ccccc1)Cc1ccccc1 (stereo not drawn) [Compound I, 1-phenyl-2-benzyl-3-[4'-(β-dimethylamino-ethyl)-piperazino-1']-butanol-2]	100000 µg/mL (≈ 253 mM)	128 µg/mL (≈ 0.324 mM)	50 µg	500 µg	50 µg	64 µg/mL (≈ 0.162 mM)	500 µg	64 µg/mL	–	–
CCN(CC)CCN1CCN(C(C)C(O)(Cc2ccccc2)Cc2ccccc2)CC1 (stereo not drawn) [II, 1-phenyl-2-benzyl-3-[4'-(β-diethylaminoethyl)-piperazino-1']-butanol-2]	50000 µg/mL (≈ 118 mM)	512 µg/mL (≈ 1.21 mM)	50 µg	500 µg	50 µg	1020 µg/mL (≈ 2.42 mM)	500 µg	–	–	–
CC(N1CCN(C)CC1)C(O)(Cc1ccccc1)Cc1ccccc1 (stereo not drawn) [LI, 1-phenyl-2-benzyl-3-[1'-methyl-piperazino-4'-]-butanol-2]	200000 µg/mL (≈ 591 mM)	256 µg/mL (≈ 0.756 mM)	50 µg	500 µg	50 µg	256 µg/mL (≈ 0.756 mM)	500 µg	–	–	–
CC(N1CCN(c2ccccc2)CC1)C(O)(Cc1ccccc1)Cc1ccccc1 (stereo not drawn) [LII, 1-phenyl-2-benzyl-3-(4'-phenyl-piperazino-1')-butanol-2]	< 10000 µg/mL	–	> 500 µg	> 500 µg	> 500 µg	–	> 500 µg	–	–	–
CC(N1CCN(Cc2ccccc2)CC1)C(O)(Cc1ccccc1)Cc1ccccc1 (stereo not drawn) [LIII, 1-phenyl-2-benzyl-3-(4'-benzyl-piperazino-1')-butanol-2]	10000 µg/mL (≈ 24.1 mM)	–	> 500 µg	> 500 µg	> 500 µg	–	> 500 µg	–	–	–
Cc1cccc(CN2CCN(C(C)C(O)(Cc3ccccc3)Cc3ccccc3)CC2)c1 (stereo not drawn) [LIV, 1-phenyl-2-benzyl-3-(4'-m-methyl-benzyl-piperazino-1')-butanol-2]	10000 µg/mL (≈ 23.3 mM)	–	> 500 µg	> 500 µg	> 500 µg	–	> 500 µg	–	–	–
OC(Cc1ccccc1)(Cc1ccccc1)CN1CCN(CCN2CCCCC2)CC1 [LIX, β,β '-diphenyl-β"-[4'-(β-piperidino-ethyl)-piperazino-1']-t-butanol]	100000 µg/mL (≈ 237 mM)	64 µg/mL (≈ 0.152 mM)	500 µg	500 µg	5 µg	–	50 µg	–	64 µg/mL	1020 µg/mL (≈ 2.43 mM)
CN1CCN(CC(O)(Cc2ccccc2)Cc2ccccc2)CC1 [LV, 1-phenyl-2-benzyl-3-(4'-methyl-piperazino-1')-propanol-2]	< 10000 µg/mL	–	> 500 µg	> 500 µg	> 500 µg	–	> 500 µg	–	–	–
CN1CCN(CCC(O)(Cc2ccccc2)Cc2ccccc2)CC1 [LVI, 1-phenyl-2-benzyl-4-(4'-methyl-piperazino-1')-butanol-2]	10000 µg/mL (≈ 29.5 mM)	–	500 µg	500 µg	500 µg	–	500 µg	–	–	–
OC(CCN1CCN(c2ccccc2)CC1)(Cc1ccccc1)Cc1ccccc1 [LVII, 1-phenyl-2-benzyl-4-(4'-phenyl-piperazino-1')-butanol-2]	< 10000 µg/mL	–	> 500 µg	500 µg	> 500 µg	–	> 500 µg	–	–	–
